Data on four substances can be found in US20040044067A1, “Toralactone and its derivation and the use of decreasing blood-fat and losing weight” (priority 2000, published 2004).

The assay relates to hyperlipemia guinea pigs. The experiment in a line: Effect on serum cholesterol and triglyceride in hyperlipemia guinea pigs (high-cholesterol feed, 30 days). The format is in vivo, guinea pig. Conditions: for Serum TC (total cholesterol) / Serum TG (triglyceride): guinea pigs on high-cholesterol feed (basic feed+0.5% cholesterol) plus 10 mg/(kg·d) compound for 30 days, serum taken 24 h after last feeding, n=10. As to the method:
The test was performed as described in Fuhua, Wang, Chinese Journal of Surgery, 1991; 8 (1): 17. 60 healthy guinea pigs of 200-500 g were randomly divided into 6 groups based on body weight and sex. Each group contained 10 animals, including both male and female. The guinea pigs of Group 1 were fed with high-cholesterol feed (basic feed+0.5% cholesterol) at an amount of 20 g per 100 g body weight per day. Groups 2, 3, 4, 5 were test groups, the guinea pigs of which were fed with high-cholesterol feed plus 10 mg/(kg·d) of Compound (1), (2), (3) or (4) for 30 days. The guinea pigs of Group 6 were fed with basic feed only. The feeding for each group continued for 30 days, and 24 hours after the last feeding, the guinea pigs were anaesthetized i.p. with 1 g/kg Urethane. Blood was taken from heart, and serum was separated. The level of serum total cholesterol (TC) and triglyceride (TG) were determined.
In the above procedure, cholesterol was determinated by enzymatic analysis, using enzymatic agent assay kit from BGH Company (Taiwan). All the operations were carried out according to the manufacturer's instruction, and the determination was accomplished in ENCOREII automatic biochemistry analyser.

For the substance neotoralactone [Compound (1)], the “Serum TC (total cholesterol)” value is reported as 4.21 ± 1.9 mmol/L and the “Serum TG (triglyceride)” value is listed as 1.21 ± 0.3 mmol/L. On to “neotoralactone-6-O-β-D-galactoside [Compound (4)]”, for which the “Serum TC (total cholesterol)” value stood at 3.71 ± 1.1 mmol/L and the “Serum TG (triglyceride)” value stood at 1.22 ± 0.2 mmol/L.

As for “neotoralactone-6-O-β-D-glucoside [Compound (2)]”, under “10 mg/(kg·d)×30d, hyperlipemia guinea pigs”, the “Effect on the level of serum TC and TG (in words)” value is listed as “most prominent”.

“neotoralactone-8-O-β-D-glucoside [Compound (3)]”: the “Serum TC (total cholesterol)” value worked out at 3.81 ± 0.9 mmol/L and the “Serum TG (triglyceride)” value stood at 1.18 ± 0.2 mmol/L.
